Test results taken from patent US20090105171A1, “Methods for Regenerating and Repairing Damaged Tissues Using Adrenomedullin” (priority 2005, published 2009).

Tests used:
[1] = test system: bone marrow-derived cells in ischemic cardiac muscle; assay: Dynamic analysis of bone marrow-derived cells in a rat model of myocardial infarction; format: in vivo, GFP chimeric rats; details: acute myocardial infarction, AM 0.05 μg/kg/min subcutaneously for seven days vs control group
Method: Acute myocardial infarction was produced in GFP chimeric rats (rats expressing GFP in the bone marrow cells) by thoracotomy and then ligation of the anterior descending coronary artery (Fujii T. et al., Am J Physiol Heart Circ Physiol. 288(3): H1444-50, 2005).
After local ischemia is created in the heart by ligation, 0.05 μg/kg/min of AM (the AM group) or 0.9% physiological saline (the control group) was subcutaneously administered for seven days via an osmotic pressure pump.
After acute myocardial infarction was produced, the distributions of bone marrow-derived cells (confirmed by GFP expression), vascular endothelial cells (confirmed by vWF, an endothelial cell marker), and cardiac muscle cells (confirmed by desmin, a cardiac muscle cell marker) in the myocardial infarct area were confirmed. Further, the total sum of the GFP-expressing cell number, vWF-expressing cell number, and desmin-expressing cell number was examined to confirm the states of regeneration of blood vessel and cardiac muscle in the AM group and control group.

[2] = test system: peripheral blood mononuclear cells; assay: Dynamics of bone marrow cells after AM administration: peripheral blood mononuclear cells and Sca-1-positive cells; format: in vivo, C57BL/6 mice
Method: First, to investigate whether AM has an effect on the dynamics of bone marrow cells, AM or physiological saline was administered randomly to model animals. As the model animals, 48 ten-week old female C57BL/6 mice were used. The transgenic mice (C57BL/6 background) which ubiquitously express green fluorescence protein (GFP) were kindly offered by Professor Masaru Okabe (Osaka University, Japan) (Okabe M, Ikawa M, Kominami K, Nakanishi T, Nishimune Y. ‘Green mice’ as a source of ubiquitous green cells. FEBS Lett 1997; 407: 313-319).
AM (1 μg, 2 μg, or 5 μg in 100 μl physiological saline) was randomly administrated to the C57BL/6 mice (each, n=8) by intraperitoneal injection every day for five days. The control mice were similarly administered with 100 μl physiological saline every day for five days (n=8).
Furthermore, AM or physiological saline was administered to other mice (each, n=8) with a subcutaneous osmotic mini-pump (Alzet, Palo Alto, Calif.) at a delivery rate of 0.05 μg/kg/min for five days. Blood samples were collected on day 5, and mononuclear cells were isolated using Histopaque-1083 (Sigma) by a method known to those skilled in the art (Asahara T, Takahashi T, Masuda H, Kalka C, Chen D, Iwaguro H, Inai Y, Silver M, Isner J M. VEGF contributes to postnatal neovascularization by mobilizing bone marrow-derived endothelial progenitor cells. EMBO J 1999; 18: 3964-3972). The mononuclear cells were counted manually and analyzed with respect to the expression of Sca1-FITC (Sca-1-positive cells: BD Pharmingen, San Diego, Calif.). The immunofluorescence-labeled cells were analyzed by a quantitative flow cytometry using the FACSCalibur Flow Cytometer (BD Biosciences, Mountain View, Calif.). An antibody with the same isotype (BD Pharmingen) was used as a control.

[3] = test system: elastase-induced pulmonary emphysema; assay: Morphological and functional analyses of elastase-treated mice administered with AM; format: in vivo, C57BL/6 mice; details: day 28
Method: The remaining 42 mice were used to examine whether AM improves lung structure and lung function in elastase-induced pulmonary emphysema. The mice were intratracheally injected with swine pancreatic elastase (200 units/kg) or physiological saline at random, and assigned to continuous infusion of either AM or physiological saline. Based on this protocol, the following three groups were prepared: the sham treated mice administrated with physiological saline (the sham treated group, n=14), elastase-treated mice administered with physiological saline (the physiological saline group, n=14), and elastase-treated mice administrated with AM (the AM group, n=14). Each of the above-mentioned Examples was carried out according to the guidelines of Animal Management Ethics Committee of the National Cardiovascular Center (Osaka, Japan).
In fact, in the present invention, findings about lung functions (increase in lung volume and static lung compliance) and morphological findings (increase in the average alveolar diameter) confirmed that emphysematous changes were induced in the lungs by intratracheal injection of elastase, and these findings are consistent with the results from previous studies (Hayes J A, Korthy A, Snider G L. The pathology of elastase-induced panacinar emphysema in hamsters. J Pathol 1975; 117: 1-14; Kuraki T, Ishibashi M, Takayama M, Shiraishi M, Yoshida M. A novel oral neutrophil elastase inhibitor (ONO-6818) inhibits human neutrophil elastase-induced emphysema in rats. Am J Respir Crit Care Med 2002; 166: 496-500). 28 days after the injection of elastase or physiological saline, the mice were anesthetized and their static lung compliance was measured using a computer-controlled small animal ventilator (FlexiVent; Scireq, Montreal, PQ, Canada) (n=7). Lungs were excised and then fixed for 24 hours, while the transpulmonary pressure was maintained at 25 cm H2O (n=7). The lung volume was measured by Scherle's method (Scherle W. A simple method for volumetry of organs in quantitative stereology. Mikroskopie 1970; 26: 57-60). The mean linear intercept, a morphometric parameter of pulmonary emphysema, was calculated for 20 randomly selected regions with a light microscope using a method known to those skilled in the art (Thurlbeck W M. Internal surface area and other measurements in emphysema. Thorax 1967; 22: 483-496). Morphological examination was conducted in a blind manner by three observers.
Further, paraffin sections were obtained from the lungs (n=7), and the tissue sections were stained for vWF to examine whether AM induced angiogenesis in the elastase-administered lungs. Three observers counted the number of vWF-positive blood vessels per mm^2 in a blind test manner.

[4] = test system: bone marrow-derived cells in the elastase-administered lungs; assay: Homing and differentiation of bone marrow cells in elastase-treated GFP-positive bone marrow chimeric mice; format: in vivo, C57BL/6 mice; details: AM group vs physiological saline group, day 28 after elastase injection
Description: C57BL/6GFP-positive bone marrow chimeric mice were established for evaluating the dynamics of bone marrow cells.
The above-mentioned bone marrow chimeric mice were produced by a method known to those skilled in the art (Sata M, Saiura A, Kunisato A, Tojo A, Okada S, Tokuhisa T, Hirai H, Makuuchi M, Hirata Y, Nagai R. Hematopoietic stem cells differentiate into vascular cells that participate in the pathogenesis of atherosclerosis. Nat Med 2002; 8: 403-409). To put it briefly, a lethal dose of radiation (900 cGy) was applied to wild-type recipient C57BL/6 mice, and bone marrow cells (3×10^6 cells/300 μl) derived from the GFP mouse were transplanted through the tail vein. In order to quantify the reconstitution of mouse bone marrow, mononuclear cells and bone marrow cells in the peripheral blood were analyzed by flow cytometry four weeks after the bone marrow transplant. The percentages of the GFP-positive peripheral blood mononuclear cells and bone marrow cells in the chimeric mice were 87% to 93% and 85% to 90%, respectively, showing that the original stem cell group was replaced by the donor cell group.
Four weeks after the bone marrow transplant, swine pancreatic elastase (200 units/kg; Sigma, St. Louis, Mo.) was injected intratracheally to the chimeric mice. These mice were divided into two groups: the elastase-treated mice to be administered with physiological saline, and those to be administered with AM (each, n=5).
28 days after the injection of elastase (n=5) or saline solution (n=5), frozen sections were prepared from the lungs of the GFP-positive chimeric mice. The number of GFP-positive cells in the alveolar wall was counted and the result was indicated as the number per 100 alveoli. […] The numbers of GFP/cytokeratin double-positive cells and GFP/vWF double-positive cells were counted, and the results were indicated as the number per 100 alveoli. […]

[5] = elastase-treated mice, continuous AM infusion

adrenomedullin [AM] was tested, and the “regeneration of cardiac muscles by bone marrow-derived cells (GFP- and desmin-expressing cells)” value [1] was “significantly enhance”, the “revascularization by bone marrow cells (GFP- and vWF-expressing cells)” value [1] was “significantly increase” and the “number of the peripheral blood mononuclear cells” value ([2]; AM 1 μg/animal, intraperitoneal injection every day for five days, day 5) was 120 % of the physiological saline group. The “number of the peripheral blood mononuclear cells” value ([2]; AM 5 μg/animal, intraperitoneal injection every day for five days, day 5) was 140 % of the physiological saline group, the “number of the peripheral blood mononuclear cells (dose dependence)” value ([2]; AM 1, 2 or 5 μg intraperitoneal every day for five days, day 5) was “increased in a dose-dependent manner” and the “number of the peripheral blood mononuclear cells” value ([2]; continuous AM, subcutaneous osmotic mini-pump 0.05 μg/kg/min for five days, day 5) was 131 % of the physiological saline group. The “frequency of Sca-1-positive cells” value ([2]; continuous AM, subcutaneous osmotic mini-pump 0.05 μg/kg/min for five days, day 5, flow cytometry) was 200 % of the physiological saline group, the “number of vWF-positive lung blood vessels” value ([3]; elastase-administered lungs, AM vs physiological saline group) was “significantly increased” and the “histological changes (air space enlargement accompanied by destruction of the alveolar wall)” value ([3]; elastase-injected mice, continuous AM infusion) was “decreased”. For the same substance, the “average alveolar diameter (mean linear intercept): increase over the sham treated group” value [3, 5] was “reduced”, the “increase in static lung compliance” value [3, 5] was “significantly reduced” and the “magnitude of the increase in lung volume” value [3, 5] was “reduced”. The “number of GFP-positive cells incorporated in the lung (alveolar wall, per 100 alveoli)” value [4] was “significantly larger”, the “number of GFP/cytokeratin double-positive cells (per 100 alveoli)” value [4] was “significantly larger” and the “number of GFP/vWF double-positive cells in the alveolar wall” value [4] was “larger”.
